In patent US20200038513A1, “MODULATORS OF FAK PROTEOLYSIS AND ASSOCIATED METHODS OF USE” (ARVINAS OPERATIONS, INC., priority 2018, published 2020):
Like-named read-outs stand apart in the source and are kept apart here.

How the values were obtained:
Fak = Fak (Homo sapiens, UniProt Q05397); assay: Fak degradation, immunoblotting in PC3 cells; type: cell-based; conditions: PC-3; degradation maximum, PC3 cells, 24 hour treatment, n = 3
Description: PC3 cells were cultured in F12-K (Kaighn's Modification of Ham's F-12 Medium), supplemented with 10% fetal bovine serum (FBS) and 1% penicillin-streptomycin at 37° C. and 5% CO2.
If not indicated otherwise, cells were seeded and grown to 80% confluency and were treated with compound or control for 24 hours. […] After 20 minutes the mixture was spun down at 16,000×g for 10 minutes at 4° C. to pellet insoluble materials. Protein concentration of supernatants were determined via BCA assay (Thermo Fisher) before addition of NuPAGE sample buffer containing 5% β-Me and boiling at 95° C. for 10 minutes. Equal amounts of protein were subjected to SDS-PAGE and subsequent electrophoretic transfer onto nitrocellulose membrane. […] Immunoblots were developed using enhanced chemiluminescence and visualized using a Bio-Rad Chemi-Doc MP Imaging System and quantitated with Image Lab v.5.2.1 software (Bio-Rad Laboratories). Data analysis and statistics was performed using Prism 7.0 (GraphPad).
Examination of Target Protein (Fak) Degradation.

[1] = Pharmacokinetics of intraperitoneal or intravenous injection in CD1 mice; type: in vivo; conditions: CD1 mice plasma; for concentration at 0.25 h / concentration at 0.5 h / concentration at 1 h / concentration at 2 h / concentration at 4 h / concentration at 0.033 h / concentration at 0.083 h: male, CD1, mouse, plasma
Description: The pharmacokinetics of exemplary compounds 103, 107, 100, 101, and 102 was examined for intraperitoneal and intravenous administration. The desired serial concentrations of working solutions were achieved by diluting stock solution (1 mg/mL in DMSO) of analyte with methanol. In particular, 20 μL of working solutions (1, 2, 5, 10, 50, 100, 500, 1000, 2000 ng/mL) were added to 20 μL of the blank CD1 mice plasma to achieve calibration standards of 1-2000 ng/mL (1, 2, 5, 10, 50, 100, 500, 1000, 2000 ng/mL) in a total volume of 40 μL. Dose of IV and IP were diluted by 1000 fold and 10000 with methanol, 20 μL of the diluted dose solutions were added to 20 μL of the blank CD1 mice plasma to achieve dose samples. Next, 40 μL standards and 40 μL dose samples were added to 20 μL of IS (100 ng/mL) and 200 μL of acetonitrile for precipitating protein respectively. Then the samples were vortexed for 30 seconds. After centrifugation at 4 degree Celsius, 4000 rpm for 15 minutes, the supernatant was diluted 3 times with water. 10 μL of the diluted supernatant was injected into the LC/MS/MS system for quantitative analysis.
Exemplary compounds 103, 107, 100, 101, and 102 were administered intravenously (5 second injection of 10% HP-b-CD and 40 mM sodium acetate and 40 mM NaCl in water, pH4.5) or intraperitoneally (5% EtOH and 5% Solutol HS15 in D5W(ESD-2)) to 6-8 week old male CD1 mice (3 mice per treatment group for a total of 12 mice) at the time points indicated below in Table 7. The mice had free access to food and water.
Dorsal metatarsal vein samples (30 μL), except that the final sample was acquired via a heart puncture, were taken from the mice at the same the administration time points as shown in Table 7.

[2] = iv, 1 mg/kg, IV 1.0 mg/kg, read-out: Conc. (ng/mL) Mouse 1
[3] = iv, 1 mg/kg, IV 1.0 mg/kg, read-out: Conc. (ng/mL) Mouse 2
[4] = iv, 1 mg/kg, IV 1.0 mg/kg, read-out: Conc. (ng/mL) Mouse 3
[5] = iv, 1 mg/kg, IV 1.0 mg/kg, read-out: Mean

Chain of Fak (Q05397 whole entry): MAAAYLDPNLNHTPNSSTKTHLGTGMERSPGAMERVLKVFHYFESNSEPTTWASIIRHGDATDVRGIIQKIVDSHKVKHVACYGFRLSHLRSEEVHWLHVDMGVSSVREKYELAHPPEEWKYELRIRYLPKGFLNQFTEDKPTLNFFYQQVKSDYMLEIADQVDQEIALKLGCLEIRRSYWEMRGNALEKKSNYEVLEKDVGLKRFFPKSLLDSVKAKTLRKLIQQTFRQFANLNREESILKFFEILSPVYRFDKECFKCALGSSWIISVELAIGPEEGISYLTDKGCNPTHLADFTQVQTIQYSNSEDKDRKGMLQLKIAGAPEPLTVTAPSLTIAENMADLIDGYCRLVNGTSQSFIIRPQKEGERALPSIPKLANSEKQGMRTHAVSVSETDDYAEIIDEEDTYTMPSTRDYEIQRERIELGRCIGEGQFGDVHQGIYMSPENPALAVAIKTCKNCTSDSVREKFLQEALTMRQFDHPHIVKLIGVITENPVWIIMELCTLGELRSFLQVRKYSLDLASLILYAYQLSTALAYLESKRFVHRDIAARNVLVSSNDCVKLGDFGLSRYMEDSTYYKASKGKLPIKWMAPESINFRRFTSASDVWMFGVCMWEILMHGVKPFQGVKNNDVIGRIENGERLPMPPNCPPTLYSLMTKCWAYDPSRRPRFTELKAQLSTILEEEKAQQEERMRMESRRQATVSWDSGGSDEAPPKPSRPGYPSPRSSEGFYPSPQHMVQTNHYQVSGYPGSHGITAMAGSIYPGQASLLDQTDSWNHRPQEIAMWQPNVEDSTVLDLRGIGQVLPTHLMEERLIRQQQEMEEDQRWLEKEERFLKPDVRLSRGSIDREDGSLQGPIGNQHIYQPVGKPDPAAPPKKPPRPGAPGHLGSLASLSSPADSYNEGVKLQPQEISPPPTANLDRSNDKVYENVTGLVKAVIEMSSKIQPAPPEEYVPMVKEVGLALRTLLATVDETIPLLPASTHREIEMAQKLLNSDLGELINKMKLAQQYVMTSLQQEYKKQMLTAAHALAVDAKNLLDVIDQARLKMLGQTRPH

## CNC(=O)c1ccc(Nc2ncc(C(F)(F)F)c(NCc3nccnc3N(C)S(C)(=O)=O)n2)cc1 [Defactinib, defactinib, reference compound]
Fak
  Dmax: 0%

## CN(c1cccc(CNc2nc(Nc3ccc(OCCCOCCC(=O)NCCOc4cccc5c4C(=O)N(C4CCC(=O)NC4=O)C5=O)cc3)ncc2C(F)(F)F)c1)S(C)(=O)=O (stereo not drawn) [Compound 107]
[1]; IP 10 mg/kg, 8 h
  Conc. (ng/mL) Mouse 1: BLOQ
  Conc. (ng/mL) Mouse 2: BLOQ
  Conc. (ng/mL) Mouse 3: BLOQ
[1]; IP 10 mg/kg, 24 h
  Conc. (ng/mL) Mouse 1: BLOQ
  Conc. (ng/mL) Mouse 2: BLOQ
  Conc. (ng/mL) Mouse 3: BLOQ
[1]; IV 1.0 mg/kg, 0.25 h
  Conc. (ng/mL) Mouse 1: BLOQ
[1]; IV 1.0 mg/kg, 0.5 h
  Conc. (ng/mL) Mouse 1: BLOQ
  Conc. (ng/mL) Mouse 2: BLOQ
  Conc. (ng/mL) Mouse 3: BLOQ
[1]; IV 1.0 mg/kg, 1 h
  Conc. (ng/mL) Mouse 1: BLOQ
  Conc. (ng/mL) Mouse 2: BLOQ
  Conc. (ng/mL) Mouse 3: BLOQ
[1]; IV 1.0 mg/kg, 2 h
  Conc. (ng/mL) Mouse 1: BLOQ
  Conc. (ng/mL) Mouse 2: BLOQ
  Conc. (ng/mL) Mouse 3: BLOQ
[1]; IV 1.0 mg/kg, 4 h
  Conc. (ng/mL) Mouse 1: BLOQ
  Conc. (ng/mL) Mouse 2: BLOQ
  Conc. (ng/mL) Mouse 3: BLOQ
[1]; IV 1.0 mg/kg, 8 h
  Conc. (ng/mL) Mouse 1: BLOQ
  Conc. (ng/mL) Mouse 2: BLOQ
  Conc. (ng/mL) Mouse 3: BLOQ
[1]; IV 1.0 mg/kg, 24 h
  Conc. (ng/mL) Mouse 1: BLOQ
  Conc. (ng/mL) Mouse 2: BLOQ
  Conc. (ng/mL) Mouse 3: BLOQ
[1]; ip, 10 mg/kg, IP 10 mg/kg, 0.25 h, read-out: Conc. (ng/mL) Mouse 1
  concentration at 0.25 h: 44.8 ng/mL
[1]; ip, 10 mg/kg, IP 10 mg/kg, 0.25 h, read-out: Conc. (ng/mL) Mouse 2
  concentration at 0.25 h: 42.6 ng/mL
[1]; ip, 10 mg/kg, IP 10 mg/kg, 0.25 h, read-out: Conc. (ng/mL) Mouse 3
  concentration at 0.25 h: 111 ng/mL
[1]; ip, 10 mg/kg, IP 10 mg/kg, 0.25 h, read-out: Mean
  concentration at 0.25 h: 66 ng/mL
[1]; ip, 10 mg/kg, IP 10 mg/kg, 0.5 h, read-out: Conc. (ng/mL) Mouse 1
  concentration at 0.5 h: 68.4 ng/mL
[1]; ip, 10 mg/kg, IP 10 mg/kg, 0.5 h, read-out: Conc. (ng/mL) Mouse 2
  concentration at 0.5 h: 41.9 ng/mL
[1]; ip, 10 mg/kg, IP 10 mg/kg, 0.5 h, read-out: Conc. (ng/mL) Mouse 3
  concentration at 0.5 h: 69.3 ng/mL
[1]; ip, 10 mg/kg, IP 10 mg/kg, 0.5 h, read-out: Mean
  concentration at 0.5 h: 59.9 ng/mL
[1]; ip, 10 mg/kg, IP 10 mg/kg, 1 h, read-out: Conc. (ng/mL) Mouse 1
  concentration at 1 h: 64.7 ng/mL
[1]; ip, 10 mg/kg, IP 10 mg/kg, 1 h, read-out: Conc. (ng/mL) Mouse 2
  concentration at 1 h: 54.2 ng/mL
[1]; ip, 10 mg/kg, IP 10 mg/kg, 1 h, read-out: Conc. (ng/mL) Mouse 3
  concentration at 1 h: 199 ng/mL
[1]; ip, 10 mg/kg, IP 10 mg/kg, 1 h, read-out: Mean
  concentration at 1 h: 106 ng/mL
[1]; ip, 10 mg/kg, IP 10 mg/kg, 2 h, read-out: Conc. (ng/mL) Mouse 1
  concentration at 2 h: 53.2 ng/mL
[1]; ip, 10 mg/kg, IP 10 mg/kg, 2 h, read-out: Conc. (ng/mL) Mouse 2
  concentration at 2 h: 38.1 ng/mL
[1]; ip, 10 mg/kg, IP 10 mg/kg, 2 h, read-out: Conc. (ng/mL) Mouse 3
  concentration at 2 h: 59.8 ng/mL
[1]; ip, 10 mg/kg, IP 10 mg/kg, 2 h, read-out: Mean
  concentration at 2 h: 50.4 ng/mL
[1]; ip, 10 mg/kg, IP 10 mg/kg, 4 h, read-out: Conc. (ng/mL) Mouse 1
  concentration at 4 h: 4.11 ng/mL
[1]; ip, 10 mg/kg, IP 10 mg/kg, 4 h, read-out: Conc. (ng/mL) Mouse 2
  concentration at 4 h: 14.9 ng/mL
[1]; ip, 10 mg/kg, IP 10 mg/kg, 4 h, read-out: Conc. (ng/mL) Mouse 3
  concentration at 4 h: 22.2 ng/mL
[1]; ip, 10 mg/kg, IP 10 mg/kg, 4 h, read-out: Mean
  concentration at 4 h: 13.7 ng/mL
[1]; [2]
  concentration at 0.033 h: 31.4 ng/mL
  concentration at 0.083 h: 8.44 ng/mL
[1]; [3]
  concentration at 0.033 h: 31.6 ng/mL
  concentration at 0.083 h: 9.65 ng/mL
[1]; [4]
  concentration at 0.033 h: 34.3 ng/mL
  concentration at 0.083 h: 9.61 ng/mL
[1]; [5]
  concentration at 0.033 h: 32.4 ng/mL
  concentration at 0.083 h: 9.23 ng/mL
[1]; iv, 1 mg/kg, IV 1.0 mg/kg, 0.25 h, read-out: Conc. (ng/mL) Mouse 2
  concentration at 0.25 h: 2.25 ng/mL
[1]; iv, 1 mg/kg, IV 1.0 mg/kg, 0.25 h, read-out: Conc. (ng/mL) Mouse 3
  concentration at 0.25 h: 1.73 ng/mL
[1]; iv, 1 mg/kg, IV 1.0 mg/kg, 0.25 h, read-out: Mean
  concentration at 0.25 h: 1.99 ng/mL
